Patent publication US8771973B2, “Methods for treating bleeding disorders using sulfated polysaccharides” (Baxter Healthcare S.A., priority 2004, dated 2014)
Marks after values point to notes of the source that are not given here.

Tests used:
Hem-A plasma = assay: dPT assay, anti-coagulant activity of NASPs in Hem-A plasma; type: biochemical, human; conditions: for clotting time, dPT: Hem-A plasma without NASP 41.5 seconds; for concentration for 50% prolongation of clotting time, fold higher than heparin: dPT, Hem-A plasma
Procedure: The dPT assay used was a modified standard clinical PT assay (Nordfang et al. (1991) Thromb Haemost 66:464-467; Welsch et al. (1991) Thrombosis Research 64: 213-222). SIMPLASTIN EXCEL thromboplastin reagent (Organon Teknika) was reconstituted with the manufacturer's diluent and further diluted 1:100 in 0.9% saline. The thromboplastin reagent, 25 mM CaCl2, and plasma samples were pre-warmed to 37° C. before initiating the assay. 100 μl of thawed plasma was aliquoted into microcentrifuge tubes. […] 100 μl of the diluted thromboplastin reagent and 100 μl of 25 mM CaCl2 were added to fibrin cups (Fisher) prewarmed to 37° C. 100 μl of plasma (normal or hemophilic) containing the test agent or saline control was added to the fibrin cups containing the thromboplastin reagent and CaCl2 to initiate clotting. The time for plasma clotting was measured with a BBL FIBROSYSTEM fibrometer.
Test compounds were diluted to 100 μM, 10 μM, 2 μM and 200 nM. For each test compound, 12.5 μl of a diluted solution containing the test compound was added to 237.5 μl of Hem-A plasma and incubated at room temperature. 100 μl of plasma containing the test compound was removed for dPT assays of plasma clotting time as described in Example 2.

Hem-A mice [1] = assay: First fucoidan study, survival of Hem-A mice after bleeding test; type: in vivo; conditions: vehicle 1/6
Procedure: Given the improved potency and magnitude of efficacy of fucoidan relative to PPS in some of the clotting assays described above, additional studies were performed in Hem-A mice with fucoidan. In the first study with fucoidan, nearly the same regimen as described for PPS was adopted, but with slightly different dose levels. Hem-A male mice were administered fucoidan at a dose of 0.1 or 1.0 mg/kg or saline subcutaneously twice daily for 4 days. On the morning of the 5th day, mice received a doubled dose of fucoidan prior to the bleeding test. Survival and animal behavior were evaluated for mice treated with fucoidan compared to vehicle controls.
In the first study, treatment of mice with fucoidan at a dose of 0.1 mg/kg appeared to be more efficacious than treatment at a dose of 1.0 mg/kg (survival at about 10 hours was 1/6 for vehicle, 4/6 for 0.1 mg/kg, and 3/6 for 1.0 mg/kg).

Hem-A mice [2] = assay: Second fucoidan study, fucoidan +/- FVIII, survival of Hem-A mice after tail vein transection; type: in vivo; conditions: fucoidan 0.1 mg/kg s.c. twice daily 4.5 days, FVIII 1.25% reconstitution 2 hours prior
Procedure: In a second study with fucoidan, combination therapy potential with factor VIII was evaluated. This study was performed as described above, except on the morning of the fifth day, mice received an intravenous bolus dose of 53 mU/mouse FVIII (about 1.25% of the normal level of FVIII) in a tail vein far up near the body. As before, the lateral tail vein, and not the artery, was transected 2 hours later at the region corresponding to a diameter of about 2.7 mm. […] Survival and clinical observations were recorded for 20-24 hours.

rabbits = conditions: intravenously at 10 mg/kg; cited from earlier work
Hem-A mice [3] = assay: Survival after tail clip, PPS-treated Hem-A mice; type: in vivo
Procedure: (§1) Hem-A mice (homozygous for the exon 16 FVIII KO allele) were licensed from John Hopkins University, and Hem-B mice (homozygous for the exon 1-3 FIX KO) were licensed from University of North Carolina at Chapel Hill. All animal procedures were performed according to “Guide for the Care and Use of Laboratory Animals” (National Research Council. Guide for the care and use of laboratory animals. Washington, D.C.: National Academy Press; 1996) and all procedures were reviewed and approved by an institutional animal care and use committee.
(§2) A. PPS Efficacy in Hem-A and Hem-B Mice The efficacy of PPS in improving clotting in Hem-A and Hem-B mice was tested. Hem-A and Hem-B male or female mice were administered PPS at a dose of 0.02, 0.06, or 0.2 mg/kg or saline vehicle subcutaneously twice daily for […]. On the morning of the fifth day after dosing, the tail was clipped 1 cm from the tip, and behavior and survival were monitored for the next 20-24 hours.

Hem-B mice [4] = assay: Survival after tail clip, PPS-treated Hem-B mice; type: in vivo; conditions: 0.06 mg/kg s.c. twice daily 4.5 days, vehicle 25, p = 0.07
Procedure: as §1, §2

Hem-B mice [5] = assay: dPT clotting time of blood samples from Hem-B mice treated with PPS; type: in vivo; design: unit not given here
Procedure: The efficacy of PPS in improving clotting in Hem-B mice was further tested in dPT assays. All mice were bled prior to the study to establish baseline (pretest) clotting times. Mice (14 weeks old) were treated subcutaneously twice a day with PPS for 4.5 days at the following doses: 2, 0.3 and 0.06 mg/kg in a volume of 250 μl. Mice were bled after 4.5 days, and clotting times were determined from collected blood samples.

rats = conditions: subcutaneously; cited from earlier work

Substance | clotting time, dPT (Hem-A plasma; 10 nM) [s] | clotting time, dPT (Hem-A plasma; 100 nM) [s] | clotting time, dPT (Hem-A plasma; 500 nM) [s] | concentration for 50% prolongation of clotting time, fold higher than heparin (Hem-A plasma) | survival at about 10 hours (Hem-A mice [1]; 0.1 mg/kg s.c. twice daily) | survival at about 10 hours (Hem-A mice [1]; 1.0 mg/kg s.c. twice daily) | % Survival 9 hr (Hem-A mice [2]; 9 hr after tail vein incision, vehicle 21) | % Survival 20 hr (Hem-A mice [2]; 20 hr after tail vein incision, vehicle 7) | tolerability (rabbits) | clotting time, dPT (Hem-A plasma; 5000 nM) [s] | % Survival (20 hours post-cut) (Hem-A mice [3]; 0.02 mg/kg s.c. twice daily 4.5 days, vehicle 25) | % Survival (20 hours post-cut) (Hem-A mice [3]; 0.06 mg/kg s.c. twice daily 4.5 days, vehicle 25, p = 0.07) | improvement in survival (Hem-A mice [3]; 0.06 mg/kg, not statistically significant (0.05<p<0.1)) | % Survival (20 hours post-cut) (Hem-A mice [3]; 0.2 mg/kg s.c. twice daily 4.5 days, vehicle 25) | % Survival (20 hours post-cut) (Hem-B mice [4]) | Mean clotting time at 4.5 days (Hem-B mice [5]; 0.06 mg/kg s.c. twice a day) | Mean clotting time at 4.5 days (Hem-B mice [5]; 0.3 mg/kg s.c. twice a day) | Mean clotting time at 4.5 days (Hem-B mice [5]; 2.0 mg/kg s.c. twice a day) | doses required to prolong clotting (rats) [mg/kg]
Fucoidan | 39 | 38 | 60 | approximately 10 fold | 4/6 | 3/6 | 61 * % | 38 ^+ % | well-tolerated | – | – | – | – | – | – | – | – | – | –
Pentosan Polysulphate Sodium [PPS] | 39 | 37 | 40 | ~100 fold | – | – | – | – | – | 70 | 20 ^ % | 44 ^# % | nearly two-fold improvement in survival | 40 ^ % | 44 ^# % | 37 | 38 | 44 | > 5
